Measurements as given in patent US20240058450A1, “BCL-XL Inhibitory Compounds Having Low Cell Permeability and Antibody Drug Conjugates Including the Same” (AbbVie Inc., priority 2014, published 2024).
Where two headings read alike, the source gives them in different places.

Tests used:
Bcl-xL = Bcl-xL (Homo sapiens, UniProt Q07817); experiment: Time Resolved-Fluorescence Resonance Energy Transfer (TR-FRET) binding assay, competition with probe F-Bak
Procedure, shortened: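 Compounds compete with F-Bak probe for GST-Bcl-xL detected by Tb-anti-GST antibody. Serial dilutions from 50 μM (2× stock) incubated 2 h at room temperature, then read at 340 nm excitation, 520 and 495 nm emission. Ki by Wang's equation, tested without and with 1% human serum.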

[1] = system: Molt-4 human acute lymphoblastic leukemia cells; experiment: Molt-4 cell viability assay (CellTiter-Glo, 48 hours, 10% HS); format: cell-based; details: Homo sapiens, MOLT-4, 48 h, non-permeabilized cells
Procedure, shortened: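 Cells were seeded at 12,500 per well in medium with 10% human serum and exposed to a 3-fold compound dilution series from 10 μM to 0.0005 μM. After 48 h, viable cells were quantified by CellTiter-Glo luminescence. Each concentration was run in duplicate on at least 3 occasions.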

[2] = system: permeabilized Bcl-xL dependent Molt-4 cells; experiment: Cytochrome C release in selectively (digitonin) permeabilized Molt-4 cells; format: cell-based, human; details: Homo sapiens, MOLT-4, 4 h, 4 h treatment, read-out: Molt-4 Permeabilized Cyt C Release
Description: The permeabilization of the mitochondrial outer membrane to release proteins from the intermembrane space into the cytosol is a pivotal event in the process of apoptosis. Specifically, the release of cytochrome C triggers the formation of the apoptosome which, in turn, results in caspase activation and other events that will commit the cell to undergo programmed cell death (Goldstein el al., 2005, Cell Death and Differentiation 12:453). The process of mitochondrial outer membrane permeabilization (MOMP) is controlled by the Bcl-2 family members. It is promoted by the multidomain pro-apoptotic proteins Bax and Bak which, upon activation, oligomerize on the outer mitochondrial membrane and form pores to ultimately release cytochrome C. This action is antagonized by the antiapoptotic members, including Bcl-2 and Bcl-xL. Compounds that are capable of inhibiting Bcl-2 or Bcl-xL, for example, in cells that depend upon these proteins for survival, can cause activation of Bax and or Bak, MOMP, release of cytochrome C and the mentioned downstream steps in the apoptotic process. This process of cytochrome C release can be measured in cells via Western blot of both mitochrondrial and cytosolic fractions, and can be used a proxy measurement of apoptosis in cells.
As a means of detecting the ability of a Bcl-xL inhibitor with low cell-permeability to cause release of cytochrome C, the cells can be treated with an agent that causes selective pore formation in the plasma membrane, but not the mitochondrial membrane. Specifically, the cholesterol/phospholipid ratio is much higher in the plasma membrane than the mitochondrial membrane. […] This agent forms insoluble complexes with cholesterol leading to the segregation of cholesterol from its normal phospholipid binding sites. This action, in turn, leads to the formation of holes about 40-50 Å wide in the lipid bilayer. Once the plasma membrane is permeabilized, cytosolic components able to pass over digitonin-formed holes can be washed out, including the cytochrome C that was released from mitochondria to cytosol in the apoptotic cells ((Campos, 2006, Cytometry A 69(6):515-523)).
To determine if Bcl-xL inhibitors were inducing cell death through apoptosis, cytochrome C release was measured in Bcl-xL dependent Molt-4 cells following treatment Specifically, 1×10^6 cells were treated for 4 h (37° C., 5% CO2) with the test compounds in half-log dilutions starting at 3.0 μM and ending at 0.01 μM. Cells were then processed as described in Chen et al., 2011, Mol. Cancer Ther. 10:2340-2350 (the Bcl-2/Bcl-X(L)/Bcl-w inhibitor, navitoclax, enhances the activity of chemotherapeutic agents in vitro and in vivo.).

[3] = system: permeabilized Molt-4 cells; experiment: JC-1 percent depolarization assay in digitonin permeabilized Molt-4 cells; format: cell-based; details: Homo sapiens
Description: In addition to cytochrome c release, mitochondria undergoing apoptosis frequently lose their transmembrane mitochondrial membrane potential (Bouchier-Hayes et al., 2008, Methods 44(3): 222-228). JC-1 is a cationic carbocyanine dye that accumulates in mitochondria and fluoresces red when mitochondria are healthy and is lost when the mitochondrial membrane is compromised (percentage depolarization; Smiley et al., 1991, Proc. Natl. Acad. Sci. USA, 88: 3671-3675; Reers et al., 1991: Biochemistry, 30: 4480-4486). This loss in signal can be detected in permeabilized cells using a fluorimeter (excitation 545 nm and emission of 590 nm) and is therefore fully quantitative, enhancing both reproducibility and throughput. Specifically, digitonin permeabilized molt-4 cells (75,000/well) were treated with Bcl-xL inhibitors (1000 nM-0.00 nM) for up to 180 minutes at 32° C., with fluorescence determined every 10 minutes. At the maximal signal, the percentage depolarization can be determined for each time concentration of Bcl-xL inhibitors according to the formula:
% Depolarization=1−[(Sample−FCCP)/(DMSO−FCCP)]
DMSO and FCCP (10 μM) are used as negative and positive controls respectively (Ryan & Letai, 2013, Methods 61(2): 156-164). EC50 values were subsequently determined from the resulting concentration-response curves. Good alignment was observed when the ability of Bcl-xL inhibitors to induce cytochrome c release was compared to loss in JC-1 fluorescence in permeabilized Molt-4 cells.

[4] = in the presence of 1% HS, read-out: Bcl-xL Binding Ki (nM, 1% HS)
[5] = without HS, read-out: Bcl-xL Binding Ki

Sequence of Bcl-xL (Q07817 whole entry): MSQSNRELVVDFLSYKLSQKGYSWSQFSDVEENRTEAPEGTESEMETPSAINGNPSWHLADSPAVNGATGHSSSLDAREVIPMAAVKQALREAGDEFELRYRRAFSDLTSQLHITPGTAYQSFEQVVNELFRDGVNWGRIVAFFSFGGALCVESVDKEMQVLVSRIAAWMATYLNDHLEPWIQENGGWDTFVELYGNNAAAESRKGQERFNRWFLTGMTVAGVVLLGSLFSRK

Row | Ki (Bcl-xL; [4]) [nM] | Ki (Bcl-xL; [5]) [nM] | EC50 [1] [nM] | EC50 [2] [nM] | EC50 [3] [nM] | SMILES
1 | 0.1 | 0.006 | 2720 | < 0.5 | 0.24 | Cc1c(-c2ccc(N3CCc4cccc(C(=O)Nc5nc6ncccc6s5)c4C3)nc2C(=O)O)cnn1CC12CC3(C)CC(C)(C1)CC(OCCNCCS(=O)(=O)O)(C3)C2 [Example 1.23, 3-{1-[(3,5-dimethyl-7-{2-[(2-sulfoethyl)amino]ethoxy}tricyclo[3.3.1.1^3,7]dec-1-yl)methyl]-5-methyl-1H-pyrazol-4-yl}-6-[8-([1,3]thiazolo[4,5-b]pyridin-2-ylcarbamoyl)-3,4-dihydroisoquinolin-2 (1H)-yl]pyridine-2-carboxylic acid]
2 | 0.81 | 0.008 | 473 | < 0.5 | 0.56 | CNCCOC12CC3(C)CC(C)(CC(Cn4ncc(-c5ccc(N6CCc7c(OCC(=O)O)ccc(C(=O)Nc8nc9ccccc9s8)c7C6)nc5C(=O)O)c4C)(C3)C1)C2 [Example 1.41, 6-[8-(1,3-benzothiazol-2-ylcarbamoyl)-5-(carboxymethoxy)-3,4-dihydroisoquinolin-2 (1H)-yl]-3-[1-({3,5-dimethyl-7-[2-(methylamino)ethoxy]tricyclo[3.3.1.1^3,7]dec-1-yl}methyl)-5-methyl-1H-pyrazol-4-yl]pyridine-2-carboxylic acid]
3 | 0.134 | < 0.001 | 19 | – | 0.13 | Cc1c(-c2ccc(N3CCc4cccc(C(=O)Nc5nc6ccccc6s5)c4C3)nc2C(=O)O)cnn1CC12CC3(C)CC(C)(C1)CC(OCCNC(CO)CO)(C3)C2 [Example 1.45, 6-[8-(1,3-benzothiazol-2-ylcarbamoyl)-3,4-dihydroisoquinolin-2 (1H)-yl]-3-{1-[(3-{2-[(1,3-dihydroxypropan-2-yl)amino]ethoxy}-5,7-dimethyltricyclo[3.3.1.1^3,7]dec-1-yl)methyl]-5-methyl-1H-pyrazol-4-yl}pyridine-2-carboxylic acid]
4 | 4.9 | < 0.01 | – | – | 0.14 | Cc1c(-c2ccc(-c3cnc4cccc(C(=O)Nc5nc6ccccc6s5)c4c3)nc2C(=O)O)cnn1CC12CC3(C)CC(C)(C1)CC(OCCNCCS(=O)(=O)O)(C3)C2 [Example 1.69, 6-[5-(1,3-benzothiazol-2-ylcarbamoyl)quinolin-3-yl]-3-{1-[(3,5-dimethyl-7-{2-[(2-sulfoethyl)amino]ethoxy}tricyclo[3.3.1.1^3,7]dec-1-yl)methyl]-5-methyl-1H-pyrazol-4-yl}pyridine-2-carboxylic acid]
5 | 1.05 | < 0.01 | 495 | – | 0.26 | Cc1c(-c2ccc(N3CCc4cccc(C(=O)Nc5nc6ccccc6s5)c4C3)nc2C(=O)O)cnn1CC12CC3(C)CC(C)(C1)CC(OCCNC[C@@H](O)[C@@H](O)[C@H](O)CO)(C3)C2 [Example 1.76, 5-{[2-([3-[(4-{6-[8-(1,3-benzothiazol-2-ylcarbamoyl)-3,4-dihydroisoquinolin-2 (1H)-yl]-2-carboxypyridin-3-yl}-5-methyl-1H-pyrazol-1-yl)methyl]-5,7-dimethyltricyclo[3.3.1.1^3,7]dec-1-yl}oxy)ethyl]amino}-5-deoxy-D-arabinitol]
6 | 0.166 | < 0.01 | 837 | – | 0.099 | Cc1c(-c2ccc(N3CCc4cccc(C(=O)Nc5nc6ccccc6s5)c4C3)nc2C(=O)O)cnn1CC12CC3(C)CC(C)(C1)CC(OCCNCC[C@@H](O)[C@H](O)[C@H](O)CO)(C3)C2 [Example 1.77, 1-{[2-({3-[(4-{6-[8-(1,3-benzothiazol-2-ylcarbamoyl)-3,4-dihydroisoquinolin-2 (1H)-yl]-2-carboxypyridin-3-yl}-5-methyl-1H-pyrazol-1-yl)methyl]-5,7-dimethyltricyclo[3.3.1.1^3,7]dec-1-yl}oxy)ethyl]amino}-1,2-dideoxy-D-arabino-hexitol]
7 | 3.1 | < 0.01 | 104 | – | 0.14 | Cc1c(-c2ccc(N3CCc4cccc(C(=O)Nc5nc6ccccc6s5)c4C3)nc2C(=O)O)cnn1CC12CC3(C)CC(C)(C1)CC(OCCNCC(CO)CO)(C3)C2 [Example 1.79, 6-[8-(1,3-benzothiazol-2-ylcarbamoyl)-3,4-dihydroisoquinolin-2 (1H)-yl]-3-(1-{[3-(2-{[3-hydroxy-2-(hydroxymethyl)propyl]amino}ethoxy)-5,7-dimethyltricyclo[3.3.1.1^3,7]dec-1-yl]methyl}-5-methyl-1H-pyrazol-4-yl)pyridine-2-carboxylic acid]
8 | 0.4 | 0.016 | 78 | – | 0.07 | Cc1c(-c2ccc(N3CCc4cccc(C(=O)Nc5nc6ccccc6s5)c4C3)nc2C(=O)O)cnn1CC12CC3(C)CC(C)(C1)CC(OCCNCC[C@H](O)CO)(C3)C2 [Example 1.85]
9 | 0.55 | < 0.01 | 378 | – | 0.06 | Cc1c(-c2ccc(-c3ccc4cccc(C(=O)Nc5nc6ccccc6s5)c4c3)nc2C(=O)O)cnn1CC12CC3(C)CC(C)(C1)CC(OCCNCCCO[C@@H]1O[C@H](C(=O)O)[C@@H](O)[C@H](O)[C@H]1O)(C3)C2 [Example 1.87, 3-{[2-({3-[(4-{6-[8-(1,3-benzothiazol-2-ylcarbamoyl)naphthalen-2-yl]-2-carboxypyridin-3-yl)-5-methyl-1H-pyrazol-1-yl)methyl]-5,7-dimethyltricyclo[3.3.1.1^3,7]dec-1-yl}oxy)ethyl]amino}propyl beta-D-glucopyranosiduronic acid]
10 | 3 | 0.127 | 96 | – | 0.21 | CNCCOC12CC3(C)CC(C)(CC(Cn4ncc(-c5ccc(-c6ccc7c[n+]([O-])cc(C(=O)Nc8nc9ccccc9s8)c7c6)nc5C(=O)O)c4C)(C3)C1)C2 [Example 1.88, 6-[4-(1,3-benzothiazol-2-ylcarbamoyl)-2-oxidoisoquinolin-6-yl]-3-[1-({3,5-dimethyl-7-[2-(methylamino)ethoxy]tricyclo[3.3.1.1^3,7]dec-1-yl}methyl)-5-methyl-1H-pyrazol-4-yl]pyridine-2-carboxylic acid]
